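All cell lines were grown in 96-well plates and treated with compound for 48 hours. TGI: total growth inhibition.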

Among the test systems are A549 NSCLC; BT-549 breast; MDA-MB-435; SN12C renal; SK-MEL-5 melanoma; NCI-H23 lung; OVCAR-3 ovarian; SW-620 colon; M14 melanoma; SNB-75 CNS.
What all share (assay): growth of human tumour cells (NCI), 48 h

Consider `N#CCOc1cccc(C2(N3CC=CCC3)CCCCC2)c1`, for which the TGI with A549 NSCLC, with BT-549 breast, in the assay on MDA-MB-435, with SN12C renal, in the assay on SK-MEL-5 melanoma and with NCI-H23 lung was > 100 µM throughout. For the same molecule, the TGI in the assay on OVCAR-3 ovarian, in the assay with SW-620 colon and with M14 melanoma was > 100 µM throughout.
As for `Nc1nn(CC(O)CO)c(=O)s1` (stereo not given), the TGI with A549 NSCLC, in the assay on SN12C renal, in the assay on SK-MEL-5 melanoma, in the assay with SNB-75 CNS, in the assay on NCI-H23 lung and in the assay with OVCAR-3 ovarian was > 100 µM in each case. Moreover, the TGI in the assay with SW-620 colon and with M14 melanoma was > 100 µM each time.
In the case of `COc1ccc(S(=O)(=O)Nc2ccc(-c3csc(N4C(=O)/C(=C/c5ccccc5)N=C4c4ccccc4)n3)cc2)cc1Cl`, the TGI was > 100 µM in the assay with A549 NSCLC; > 100 µM in the assay with MDA-MB-435; > 100 µM with SN12C renal; > 100 µM in the assay on SK-MEL-5 melanoma; > 100 µM in the assay with SNB-75 CNS; 54.8 µM with NCI-H23 lung. Moreover, the results for the TGI with OVCAR-3 ovarian, in the assay with SW-620 colon and with M14 melanoma were > 100 µM, > 100 µM and 71.9 µM, respectively.
Consider `C=CCCC(On1c(-c2ccc(Cl)cc2)csc1=S)c1ccccc1` (stereo not given), for which the TGI in the assay with A549 NSCLC was > 100 µM; with BT-549 breast, > 100 µM; with MDA-MB-435, > 100 µM; with SN12C renal it was > 100 µM; in the assay with SK-MEL-5 melanoma, 64.8 µM; in the assay on NCI-H23 lung it was > 100 µM. Also, the TGI in the assay on OVCAR-3 ovarian, in the assay with SW-620 colon and in the assay with M14 melanoma was > 100 µM in each case.
As to `CC1(C)OCC(COC(=O)NCn2cc(-c3ccccc3)nn2)O1` (stereo not given), the TGI with A549 NSCLC, in the assay on BT-549 breast, with SN12C renal, in the assay on SK-MEL-5 melanoma, with SNB-75 CNS and with NCI-H23 lung was > 100 µM throughout. For the same molecule, the TGI in the assay on SW-620 colon and in the assay on M14 melanoma was > 100 µM throughout.
With `COC(=O)c1c(O)ccc2c1c1c(n2Cc2ccccn2)C(=O)c2ccccc2C1=O`, the TGI in the assay on A549 NSCLC, in the assay with BT-549 breast, with MDA-MB-435, in the assay with SN12C renal, with SK-MEL-5 melanoma and in the assay with NCI-H23 lung was > 100 µM each time. The TGI is 64.8 µM with OVCAR-3 ovarian and > 100 µM in the assay on M14 melanoma.
Turning to `C=CC[N+](CCO)(CCO)CCCCCCCCCCCCCCCCCC`, the TGI with A549 NSCLC was 35 µM; in the assay with SN12C renal, 24 µM; in the assay with SK-MEL-5 melanoma, 25.6 µM; with SNB-75 CNS, 7.55 µM; in the assay on NCI-H23 lung, 44.9 µM; with OVCAR-3 ovarian it was 27.1 µM. In the assay on SW-620 colon, the TGI came out at 22.2 µM.
Regarding `N#Cc1ccc(Nc2cnc3ccc(N)cc3n2)cc1`, the TGI with A549 NSCLC, in the assay with SN12C renal, with SK-MEL-5 melanoma, in the assay on SNB-75 CNS, in the assay on NCI-H23 lung and with OVCAR-3 ovarian was > 100 µM throughout. Further, the TGI in the assay with SW-620 colon and in the assay on M14 melanoma was > 100 µM in each case.
Take `COc1c(-c2cccs2)oc2c(CC(=O)O)cccc2c1=O`: the TGI in the assay with A549 NSCLC, in the assay on BT-549 breast, in the assay with MDA-MB-435, with SN12C renal, in the assay with SK-MEL-5 melanoma and with NCI-H23 lung was > 100 µM each time. Moreover, the TGI with OVCAR-3 ovarian and in the assay with M14 melanoma was > 100 µM in each case.
On to `CNC(=O)c1ccccc1[S+]1c2cccc3cccc(c23)C(=O)N1C` (stereo not given), for which the TGI in the assay on A549 NSCLC, with BT-549 breast, with MDA-MB-435, with SN12C renal, with SK-MEL-5 melanoma and in the assay on NCI-H23 lung was > 100 µM throughout. For the same molecule, the TGI with OVCAR-3 ovarian, in the assay on SW-620 colon and in the assay on M14 melanoma was > 100 µM in each case.
In the case of `C[C@H](N)C(=O)N[C@@H]1[C@H]2C(=C(O)C[C@@H](O)[C@@H]2O)C(=O)O[C@@H]1C`, the TGI in the assay on A549 NSCLC, with SN12C renal, with SK-MEL-5 melanoma, in the assay on SNB-75 CNS, in the assay with NCI-H23 lung and with OVCAR-3 ovarian was > 100 µM in each case. For the same molecule, the TGI with SW-620 colon was > 100 µM.
Consider `COc1ccc2c(c1)CC1(O)COc3cc(OC)ccc3C1O2` (stereo not given), for which the TGI in the assay with A549 NSCLC, in the assay with BT-549 breast, in the assay on MDA-MB-435, in the assay with SN12C renal, in the assay with SK-MEL-5 melanoma and in the assay with NCI-H23 lung was > 100 µM throughout. Moreover, the TGI with OVCAR-3 ovarian, with SW-620 colon and with M14 melanoma was > 100 µM in each case.
On to `O=C1C2=C(CCCCC2)C2CCCCC12O` (stereo not given), for which the TGI with A549 NSCLC, with SN12C renal, with SNB-75 CNS, in the assay with NCI-H23 lung, in the assay with OVCAR-3 ovarian and in the assay with SW-620 colon was > 100 µM each time. In the assay on M14 melanoma, the TGI is > 100 µM.
With `CCOC(=O)c1cn(CC)c2cc3c(cc2c1=O)CCS3(=O)=O`, the TGI in the assay on A549 NSCLC, in the assay on BT-549 breast, in the assay with MDA-MB-435, in the assay on SN12C renal, in the assay with SK-MEL-5 melanoma and in the assay with NCI-H23 lung was > 100 µM throughout. Further, the TGI with OVCAR-3 ovarian, in the assay on SW-620 colon and in the assay with M14 melanoma was > 100 µM in each case.
As for `C[C@H](CN1CC(=O)NC(=O)C1)N1CC(=O)NC(=O)C1`, the TGI in the assay with A549 NSCLC, in the assay on SN12C renal, in the assay with SK-MEL-5 melanoma, in the assay with SNB-75 CNS, with NCI-H23 lung and with OVCAR-3 ovarian was > 100 µM throughout. In the assay on SW-620 colon, the TGI was > 84.4 µM.
As to `CC(C)(C)OC(=O)N1Cc2cc(O)ccc2C[C@H]1C(=O)O`, the TGI in the assay on A549 NSCLC, in the assay with MDA-MB-435, in the assay with SN12C renal, with SK-MEL-5 melanoma, in the assay with SNB-75 CNS and with NCI-H23 lung was > 100 µM throughout. The TGI in the assay with OVCAR-3 ovarian and in the assay with SW-620 colon was > 100 µM in each case.
